Reference: patent publication US20210212959A1, “GIP ELEVATION INHIBITOR” (KAO CORPORATION, priority 2018, published 2021)

Test system: blood GIP level
Assay: GIP elevation inhibitory activity of D-mannitol (single dietary test)
Type: in vivo, mice (C57BL/6J)
Method: Powdery feeds were prepared by using D-mannitol (manufactured by Kao Corp.) in accordance with the compositions listed in the following table and used as test samples. [table] Powdery feeds (Table 1) were weighed so as to have the same calories in each group and freely fed for 30 minutes to mice (C57BL/6J, CLEA Japan, Inc, male, 10-weeks old, n=10) fasted for 18 hours or more. During this free feeding, 200 mg of the feed was given to the high fat diet (HF) group; whereas, 216 mg of the feed to the D-mannitol group. Note that the calorie of D-mannitol was calculated as 0. Before feeding, and 30, 60 and 120 minutes after feeding a powdery-feed test sample, the mice were anesthetized with isoflurane, blood was sampled from the orbit (heparinized hematocrit micro blood collection tube, manufactured by VITREX) and the blood GIP level was measured. The amount of GIP was measured in accordance with ELISA method (Rat/Mouse GIP (total) ELISA (Millipore)). Each value was shown by mean±standard deviation. Statistically significant difference between the groups was obtained by applying Student's t-test to the HF group (*: p<0.05).

OC[C@@H](O)[C@@H](O)[C@H](O)[C@H](O)CO [D-mannitol]
inhibitory activity against GIP elevation (conclusion of single dietary test in mice): has an inhibitory activity against GIP elevation | blood GIP concentration value at 30 minutes after intake of the sample (mice C57BL/6J male, fasted 18 hours or more, 216 mg high fat powdery feed containing D-mannitol, compared to HF group, Student's t-test p<0.05, FIG. 1A): significantly low | area under the curve of GIP concentration up to 120 minutes after intake of the sample (mice C57BL/6J male, fasted 18 hours or more, 216 mg high fat powdery feed containing D-mannitol, compared to control (HF) group, p<0.05, FIG. 1B): significantly low
